This is an account of results in patent US10835493B2, “Platelet-like proteo-microparticles and method of using such in drug delivery” (Academia Sinica, priority 2015, dated 2020).

Structures are written as SMILES.

Series [1] concerns HO-1 expression in SVECs. The experiment in a line: CoPP-induced HO-1 expression in SVECs (western blotting). The following applies: 4 hours exposure then overnight, compared to β-actin. The format is cell-based, murine. Here is the method: (§1) FIGS. 10A-10C show in vitro analysis of CoPP-induced expression of HO-1. FIG. 10A is a schematic diagram showing the relationship between CoPP, HO-1 and bilirubin. […] The cells were then placed back in a 37° C. incubator overnight before subjecting to western blotting (FIG. 10B). FIG. 10C presents the specific activity of the induced HO-1 in every treated sample, in catalyzing heme into bilirubin (n=6). NT; not treated, CoPP; free CoPP, Lipo+CoPP; liposome-encapsulated CoPP, PLP+CoPP; PLP-encapsulated CoPP. *, P<0.05, ***, P<0.001.
(§2) Samples were separated on 4-12% SDS-polyacrylamide gels (BioRad, US). After transfer to PVDF membrane, primary and secondary antibodies were applied, and the signals were detected with ECL-plus reagent. Primary antibodies against human GPIIb (GTX113758), human CD42c (GTX113355) and β-actin (GTX109639) were purchased from GeneTex (US). The anti-human CD62P (sc-19672) were from Santa Cruz (US). The rabbit polyclonal anti-HO-1 antibodies were made in-house according to Lin et al. ((2013), Arterioscler Thromb Vase Biol 33:785-794).
(§3) The capability of PLP−CoPP to induce HO-1 expression was first investigated in SVECs, RAW264.7 cells and MΦ (FIG. 10B). […] In addition, the enzyme activity of HO-1 in each corresponded to the expression level of enzyme in each of the CoPP-treated samples.
For orientation: In western blotting, separated proteins are transferred to a membrane and probed.

Series [2] deals with HO-1 expression in RAW264.7 cells. The experiment in a line: CoPP-induced HO-1 expression in RAW264.7 cells (western blotting). The class given is cell-based, murine. Particulars: 4 hours exposure then overnight. How it is done:
as §1, §2, §3

Series [3] has as its system murine model of I/R injury. Nature of the series: Infarct area in murine model of myocardial I/R injury (histology). The format is in vivo, mouse. Particulars: 5 mg/Kg i.v. at 72 hours of reperfusion then every 5 days; vs I/R+saline. The text has this: (§4) FIGS. 6A-6D show therapeutic analysis of PLP−CoPP in a murine model of myocardial I/R injury. […] Subsequent injections were made every 5 days until day 28, at which point the mice were sacrificed. Subsequently, the heart tissues of the mice were sectioned and stained with Masson's trichrome (FIG. 6B). NT; not treated, CoPP; free CoPP, Lipo+CoPP; liposome-encapsulated CoPP, PLP+CoPP; PLP-encapsulated CoPP. Scale bar; 1 mm for the whole section and 100 μm for the higher magnified images.
Surgery for myocardial ischemia-reperfusion (I/R) was performed according to the protocol published in Ojha et al. ((2008), Am J Physiol Heart Circ Physiol 294:H2435-H2443). Briefly, the mice were ventilated on room air-isoflurane at an appropriate rate and tidal volume. The heart was accessed via left thoracotomy, in which the left lung was retracted to allow entrance to the pericardium. Subsequently, the left atrium was elevated to expose the left anterior descending coronary artery (LAD), and was isolated using a 7-0 silk suture on a taper needle. The suture was tightened over a piece of polyethylene-10 tubing to provide for reversible ischemia via the occlusion of the coronary artery. Ischemia was allowed to continue for 45 minutes after occlusion. After 45 minutes, the suture was released to allow for reperfusion of the injured myocardium. […]

The subject of series [4] is I/R injured hearts. Nature of the series: PCR of HO-1 and pro-inflammatory genes in I/R injured hearts. The format is in vivo, mouse. The following applies: i.v. at 72 hours of reperfusion.
From the text: as §4
Total RNA was isolated from a whole heart using TRI Reagent (1 mL/whole heart). Subsequently, 1 μg of RNA was transcribed info cDNA using a random primer mixer (ProtoScript M-MuLV First Strand cDNA synthesis kit, New England BioLabs) and amplified during 35 cycles by PCR, utilizing specific primers (Table 1). The reactants were cycled at 95° C. for 1 min, 58° C. for 1 min, and 72° C. for 1.5 min to enable denaturation, annealing, and extension, respectively. PCR products were then separated on 1% (w/v) agarose gel at 60 V for 1 hour in TBE buffer (80 mM Tris base, 80 mM boric acid, and 2 mM EDTA, pH 8). The gels were stained with Health View Nucleic Acid Stain (Genomics, Taipei, Taiwan) for 30 minutes and then visualized under UV light.

The test system of series [5] is murine model of non-reperfused MI. Nature of the series: Echocardiographic assessment of cardiac function in murine model of MI. The format is in vivo, mouse. The following applies: 28 days post MI. Here is the method: FIGS. 7A-7D show echocardiographic assessments of cardiac function and blood chemistry analysis of a murine model of MI injury after PLP−CoPP treatments. […] Treatments were then given every 5 days until day 28, at which point the cardiac function of the mice was assessed by echocardiography (n=8) (FIG. 7B); LVEF, left ventricular ejection fraction; FS, fraction shortening; LVEDV, left ventricular end-diastolic volume; LVESV, left ventricular end-systolic volume; IVSd, interventricular septal thickness at diastole; IVSs, interventricular septal thickness at systole. The blood of the mice was analyzed for biomarkers to assess liver function (FIG. 7C), renal function (FIG. 7D), and cardiac function (FIG. 7E); AST, aspartate aminotransferase; ALT, alanine aminotransferase; TBIL, total bilirubin; BUN, blood urea nitrogen; CRE, creatinine; CKMB, creatine kinase MB, *, P<0.05, ***, P<0.001. […]
The cardiac function in murine models of both I/R and MI was assessed by using a 30-MHz probe (Vevo770; Visual Sonics, Toronto, ON, Canada), following the methods published in Chen et al. ((2015), Stem Cells Trans Med 4:269-275). […] The left ventricular end-diastolic diameter (LVEDD) and end-systolic diameter (LVESD) were measured perpendicular to the long axis of the ventricle at the location of the papillary muscle insertion site. […]

Series [6] relates to murine model of MI. The experiment in a line: Blood chemistry (serum) analysis in murine model of MI. The class given is in vivo, mouse. The following applies: end of 28-day treatment. Here is the method: FIGS. 7A-7D show echocardiographic assessments of cardiac function and blood chemistry analysis of a murine model of MI injury after PLP−CoPP treatments. […] Treatments were then given every 5 days until day 28, at which point the cardiac function of the mice was assessed by echocardiography (n=8) (FIG. 7B); LVEF, left ventricular ejection fraction; FS, fraction shortening; LVEDV, left ventricular end-diastolic volume; LVESV, left ventricular end-systolic volume; IVSd, interventricular septal thickness at diastole; IVSs, interventricular septal thickness at systole. The blood of the mice was analyzed for biomarkers to assess liver function (FIG. 7C), renal function (FIG. 7D), and cardiac function (FIG. 7E); AST, aspartate aminotransferase; ALT, alanine aminotransferase; TBIL, total bilirubin; BUN, blood urea nitrogen; CRE, creatinine; CKMB, creatine kinase MB, *, P<0.05, ***, P<0.001.
All blood tests were performed by independent staff at the Taiwan Mouse Clinic, Academia Sinica, Taiwan. Male, BALB/c mice, approximately 56 weeks old, were used for all analyses (n=5 per group).
Levels of aspartate transaminase (AST), alanine transaminase (ALT), and total bilirubin in the serum were the biomarkers used to evaluate the hepatotoxicity of CoPP (FIG. 7C). […] Similar results were also seen in the measured serum level of blood urine nitrogen (BUN) and creatinine (CRE), which are biomarkers for renal toxicity (FIG. 7D).

In the case of `C=CC1=C(C)c2cc3[n-]c(cc4nc(cc5[n-]c(cc1n2)c(C)c5CCC(=O)[O-])C(CCC(=O)[O-])=C4C)c(C)c3C=C.[Co+2].[H+].[H+]` [CoPP, cobalt protoporphyrin], the HO-1 expression result in series [1] is reported as “induction of some expression”. Also, the HO-1 expression entry in series [2] is on record as “induced strong HO-1 expression”. Also, the “infarct area of the heart” value in series [3] is “significant reduction”. Besides, the “pro-inflammatory genes TNFα, MCP-1, IL6 and IL1β in the hearts” value in series [4] is “downregulated”. Besides, in series [4] (vs saline and Lipo−CoPP), the “expression of the HO-1 gene (HMXO1) in the hearts” value is given as “upregulated”. The “left ventricular ejection fraction (LVEF, %)” value in series [5] (5 mg/Kg i.v. from 3 days post-infarction every 5 days) was “No significant difference”. In addition, the “LVEDV and LVESV” value in series [5] is “significantly better than the other treatment groups”. In series [6], the “serum ALT” value is recorded as “significantly higher level”; the “serum BUN and CRE” value is on record as “significantly higher than the other treatment groups”; the “serum CKMB” value was “significantly lower CKMB levels”.
